Reference: patent US7612104B2, “Bicyclic aryl-sulfonic acid [1,3,4]-thiadiazol-2-yl-amides, processes for their preparation, pharmaceutical compositions and methods for their use” (Sanofi-Aventis, priority 2005, dated 2009)
pEC50: −log10 of the molar value.

Target: T1, human PPARgamma (Homo sapiens, UniProt P37231)
T1 construct: amino acids I152-Y475; expressed in transfected cells; host or cells: HEK cells, transiently transfected (pcDNA3-GAL4-humanPPARgammaLBD)
T1 sequence (P37231 182-477 isoform P37231-2 limits assumed): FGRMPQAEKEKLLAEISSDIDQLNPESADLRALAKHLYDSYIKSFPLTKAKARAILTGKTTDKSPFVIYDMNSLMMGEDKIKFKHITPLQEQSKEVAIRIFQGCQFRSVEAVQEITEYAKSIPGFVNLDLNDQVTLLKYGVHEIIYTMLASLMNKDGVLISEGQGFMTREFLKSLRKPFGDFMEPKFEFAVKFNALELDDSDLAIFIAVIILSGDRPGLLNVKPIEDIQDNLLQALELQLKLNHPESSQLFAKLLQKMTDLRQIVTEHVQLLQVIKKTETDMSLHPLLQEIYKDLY
Assay: Cellular PPARgamma assay (transiently transfected HEK cells, luciferase reporter)
Type: cell-based
Conditions: HEK cells transiently transfected with GAL4-humanPPARgammaLBD
Excerpt: A transient transfection system is employed to determine the cellular PPARgamma activity of PPAR agonists. It is based on the use of a luciferase reporter plasmid (pGL3basic-5xGAL4-TK) and of a PPARgamma expression plasmid (pcDNA3-GAL4-humanPPARgammaLBD). Both plasmids are transiently transfected into human embryonic kidney cells (HEK cells). There is then expression in these cells of the fusion protein GAL4-humanPPARgammaLBD which binds to the GAL4 binding sites of the reporter plasmid. In the presence of a PPARgamma-active ligand, the activated fusion protein GAL4-humanPPARgammaLBD induces expression of the luciferase reporter gene, which can be detected in the form of a chemiluminescence signal after addition of a luciferase substrate. As a difference from the stably transfected PPARalpha reporter cell line, in the cellular PPARgamma assay the two components (luciferase reporter plasmid and PPARgamma expression plasmid) are transiently transfected into HEK cells because stable and permanent expression of the PPARgamma fusion protein is cytotoxic.
The luciferase reporter plasmid pGL3basic-5xGAL4-TK is based on the vector pGL3basic from Promega. The reporter plasmid is prepared by cloning five binding sites of the yeast transcription factor GAL4 (each binding site with the sequence 5′-CTCGGAGGACAGTACTCCG-3′), together with a 160 bp-long thymidine kinase promoter section (Genbank Accession #AF027128) 5′-upstream into pGL3basic. 3′-downstream of the thymidine kinase promoter is the complete luciferase gene from Photinus pyralis (Genbank Accession #M15077) which is already a constituent of the plasmid pGL3basic used. The cloning and sequencing of the reporter plasmid pGL3basic-5xGAL4-TK took place in analogy to the description in Sambrook J. et. al. (Molecular cloning, Cold Spring Harbor Laboratory Press, 1989).
The PPARgamma expression plasmid pcDNA3-GAL4-humanPPARgammaLBD was prepared by first cloning the cDNA coding for amino acids 1-147 of the yeast transcription factor GAL4 (Genbank Accession #P04386) into the plasmid pcDNA3 (from Invitrogen) 3′-downstream of the cytomegalovirus promoter. Subsequently, the cDNA of the ligand-binding domain (LBD) of the human PPARgamma receptor (amino acids I152-Y475; Accession #g1480099) 3′-downstream of the GAL4 DNA binding domain. Cloning and sequencing of the PPARgamma expression plasmid pcDNA3-GAL4-humanPPARgammaLBD again took place in analogy to the description in Sambrook J. et. al. (Molecular cloning, Cold Spring Harbor Laboratory Press, 1989). Besides the luciferase reporter plasmid pGL3basic-5xGAL4-TK and the PPARgamma expression plasmid pcDNA3-GAL4-humanPPARgammaLBD, also used for the cellular PPARgamma assay are the reference plasmid pRL-CMV (from Promega) and the plasmid pBluescript SK(+) from Stratagene. All four plasmids were prepared using a plasmid preparation kit from Qiagen, which ensured a plasmid quality with a minimal endotoxin content, before transfection into HEK cells.
The activity of PPARgamma agonists is determined in a 4-day assay which is described below. Before the transfection, HEK cells are cultivated in DMEM (#41965-039, Invitrogen) which is mixed with the following additions: 10% FCS (#16000-044, Invitrogen), 1% penicillin-streptomycin solution (#15140-122, Invitrogen) and 2 mM L-glutamine (#25030-024, Invitrogen).
Firstly, solution A, a transfection mixture which contains all four plasmids previously described in addition to DMEM, is prepared. The following amounts are used to make up 3 ml of solution A for each 96 well microtiter plate for an assay: 2622 μl of antibiotic- and serum-free DMEM (#41965-039, Invitrogen), 100 μl of reference plasmid pRL-CMV (1 ng/μl), 100 μl of luciferase reporter plasmid pGL3basic-5xGAL4-TK (10 ng/μl), 100 μl of PPARgamma expression plasmid pcDNA3-GAL4-humanPPARgammaLBD (100 ng/μl) and 78 μl of plasmid pBluescript SK(+) (500 ng/μl). […]

SMILES | pEC50
CCOc1cc(C(F)(F)F)ccc1C(=O)NC1Cc2ccc(S(=O)(=O)Nc3nnc(C(C)C)s3)cc2C1 (racemic) [Example 1, 2-Ethoxy-N-[5-(5-isopropyl-[1,3,4]thiadiazol-2-ylsulfamoyl)-indan-2-yl]-4-trifluoromethyl-benzamide] | 9.00
CCOc1cc(C(F)(F)F)ccc1C(=O)NC1Cc2ccc(S(=O)(=O)Nc3nnc(C(C)C)s3)cc2C1 (single isomer, unassigned; enantiomer 1) [Example 1.1, 2-Ethoxy-N-[5-(5-isopropyl-[1,3,4]thiadiazol-2-ylsulfamoyl)-indan-2-yl]-4-trifluoromethyl-benzamide (Enantiomer 1)] | 7.66
CCOc1cc(C(F)(F)F)ccc1C(=O)NC1Cc2ccc(S(=O)(=O)Nc3nnc(C(C)C)s3)cc2C1 (single isomer, unassigned; enantiomer 2) [Example 1.2, 2-Ethoxy-N-[5-(5-isopropyl-[1,3,4]thiadiazol-2-ylsulfamoyl)-indan-2-yl]-4-trifluoromethyl-benzamide (Enantiomer 2)] | < 5.00
CCOc1cc(C(F)(F)F)ccc1C(=O)N[C@H]1CCc2ccc(S(=O)(=O)Nc3nnc(C(C)C)s3)cc2C1 [Example 5, 2-Ethoxy-N-[(S)-7-(5-isopropyl-[1,3,4]thiadiazol-2-ylsulfamoyl)-1,2,3,4-tetrahydro-naphthalen-2-yl]-4-trifluoromethyl-benzamide] | 7.00
CCOc1cc(C(F)(F)F)ccc1C(=O)N[C@@H]1CCc2ccc(S(=O)(=O)Nc3nnc(C(C)C)s3)cc2C1 [Example 6, 2-Ethoxi-N-[(R)-7-(5-isopropyl-[1,3,4]thiadiazol-2-ylsulfamoyl)-1,2,3,4-tetrahydro-naphthalene-2-yl]-4-trifluoromethyl-benzamide] | 6.70
CCOc1cc(C(F)(F)F)sc1C(=O)NC1Cc2ccc(S(=O)(=O)Nc3nnc(C(C)C)s3)cc2C1 (stereo not drawn) [Example 11, 3-Ethoxy-5-trifluoromethyl-thiophene-2-carboxylic acid [5-(5-isopropyl-[1,3,4]thiadiazol-2-ylsulfamoyl)-indan-2-yl]-amide] | < 5.00
